{"source": "patent US9125384B2", "about": "“Mouse having human leukemic stem cell and leukemic non-stem cell amplified therein, and method for production thereof” (RIKEN, priority 2007, dated 2015)", "key": {"[1]": {"system": "human AML cells (hCD45^+hCD33^+)", "test": "In vivo anti-leukemic cytotoxicity of Ara-C in AML-engrafted NOD/SCID/IL2rγ^null recipients (PB AML cell count)", "parameters": "species or system mouse (NOD/SCID/IL2rγ^null) engrafted with human AML"}, "[2]": {"system": "human AML cells in BM cavity and endosteal surface", "test": "Histology of femoral bone sections after Ara-C (HE, TUNEL, immunostaining)", "assay_type": "in vivo, mouse (NOD/SCID/IL2rγ^null) engrafted with human AML", "settings": "day 3 after Ara-C injection, anti-hCD34/hCD38/osteopontin staining", "description": "Paraformaldehyde-fixed, decalcified, paraffin-embedded sections were prepared from femurs of the recipients transplanted with sorted hCD34^+hCD38^− AML BM cells. Each section was subjected to hematoxylin and eosin (HE) staining. TUNEL staining was performed according to standard procedures using ApopTag peroxidase in situ apoptosis detection kit (Intergene, Purchase, N.Y.) by Biopathology Institute (Oita, Japan). To determine the localization of the CD34^+ cell populations, sections were immunostained with mouse anti-hCD34 antibody (Immunotech, France) and rat anti-mouse osteopontin antibody (Immuno-Biological Laboratories, Tokyo, Japan) were used. For the quantitative localization of LSCs, enodosteal and central regions were defined as the zones within or outside twelve cells from the endosteum, respectively, as described previously (Nilsson, S. K., Johnston, H. M. & Coverdale, J. A. Spatial localization of transplanted hemopoietic stem cells: inferences for the localization of stem cell niches. Blood 97, 2293-2299 (2001)). […] A total of 10,065 cells were counted from femoral and tibial sections. For localization post-engraftment analysis, a total of 24,973 cells were counted using femoral and tibial sections prepared from recipients of BM hCD34^+hCD38^− cells from Cases 4, 10 and 11. […]"}, "[3]": {"system": "hCD34^+hCD38^− LSCs vs non-stem AML cell fractions", "test": "Post-chemotherapy apoptosis analysis of BM AML cell fractions (Annexin V/7AAD flow cytometry)", "assay_type": "in vivo, mouse (NOD/SCID/IL2rγ^null) engrafted with human AML", "settings": "150 mg/kg Ara-C i.p.; BM at day 3 after injection; n=3; p<0.05", "description": "NOD/SCID/IL2rγ^null recipients transplanted with 10^4-10^5 sorted BM hCD34^+hCD38^− cells from Cases 4, 7 and 11 at 12-20 weeks post-transplantation were injected with 150 mg/kg Ara-C i.p. At day 3 after injection, BM was analyzed for the presence of apoptotic cells by first dividing the hCD34^+hCD38^−, hCD34^+hCD38^+ and hCD34^− fractions within the hCD45^+ gate and quantifying the viable population in each fraction by Annexin V and 7-amino-actinomycin D (7AAD) staining (BD Immunocytometry, San Jose, Calif.). Annexin V^−7AAD^− hCD45^+hCD34^+hCD38^− cells were sorted and 10^3 cells were injected intravenously into irradiated newborn NOD/SCID/IL2rγ^null recipients."}, "[4]": {"test": "Adverse effect of Ara-C in vivo (hemoglobin, platelet count, plasma AST)", "settings": "150 mg/kg Ara-C i.p.; day 8 after injection", "description": "Intraperitoneal (i.p.) injection of 150 mg/kg Ara-C (Biogenesis, Poole, UK) was performed in NOD/SCID/IL2rγ^null recipients transplanted with 10^4 purified BM […] cells from Cases 4 (n=2) and 7 (n=4) at 12-16 weeks post-transplantation. PB was obtained at the time of injection (day 0) and every four days thereafter and MNCs were labeled with mouse anti-hCD45 and anti-hCD33 monoclonal antibodies to determine the fraction of hCD45^+hCD33^+ cells using flow cytometry. The number of AML cells/ml PB was determined by multiplying the fraction of PB hCD45^+CD33^+ cells with total PB leukocyte count/ml in each recipient. Hemoglobin concentration, platelet count and plasma aspartate aminotransferase (AST) levels were analyzed prior to and at 8 days after Ara-C administration."}}, "note": "“And” between values parts separate entries of the source, which are not always exact repeats. Equal entries are not always repeated. “Also recorded” adds a separate entry of the source.", "data": [{"smiles": "Nc1ccn([C@@H]2O[C@H](CO)[C@@H](O)[C@@H]2O)c(=O)n1", "note": "[Ara-C, cytosine arabinoside]", "values": [{"measurement": "time of nadir of AML count", "setting": "[1]; single 150 mg/kg Ara-C i.p. on day 0, PB", "value": "8 to 12", "unit": "days"}, {"measurement": "time of recovery of PB AML cell count (relapse)", "setting": "[1]; single 150 mg/kg Ara-C i.p. on day 0, PB, 150 mg/kg", "value": "28 to 32 days and 16 to 28 days"}, {"measurement": "PB AML burden (hCD45^+hCD33^+ cell count per ml of PB)", "setting": "[1]; single 150 mg/kg Ara-C i.p., 12-16 weeks post-transplantation, monitored every four days, 150 mg/kg", "value": "rapid decline in AML burden; also recorded: markedly reduced"}, {"measurement": "localization of apoptotic and surviving cells in femoral bone sections", "setting": "[2]", "value": "preferential killing of cells in the middle of the BM cavity; also recorded: remain at the endosteal surface abutting murine osteoblasts; also recorded: marked segregation of apoptotic cells in the center of the bone marrow cavity"}, {"measurement": "chemosensitivity of hCD34^+hCD38^− LSCs compared with non-stem AML cell fractions (apoptosis)", "setting": "[3]", "value": "relative resistance to Ara-C; also recorded: more resistant to Ara-C; also recorded: relatively resistant to Ara-C treatment"}, {"measurement": "hematologic adverse effects (hemoglobin concentration, platelet count)", "setting": "[4]", "value": "Typical hematologic adverse effects; also recorded: anemia and thrombocytopenia in all treated mice"}]}]}
